In US9550782B2, “Compounds and methods for treating diabetes” (Medivation Technologies, Inc., priority 2011, dated 2017):

Tests used:
[1] = target: T1, human recombinant adrenergic α1D receptor (Homo sapiens, UniProt P25100); experiment: Radioligand binding, adrenergic α1D ([3H]Prazosin); conditions: compound at 0.1 μM, 0.1 µM
T1 construct: expressed in transfected cells; host or cells: HEK-293
T1 sequence (P25100 1-572): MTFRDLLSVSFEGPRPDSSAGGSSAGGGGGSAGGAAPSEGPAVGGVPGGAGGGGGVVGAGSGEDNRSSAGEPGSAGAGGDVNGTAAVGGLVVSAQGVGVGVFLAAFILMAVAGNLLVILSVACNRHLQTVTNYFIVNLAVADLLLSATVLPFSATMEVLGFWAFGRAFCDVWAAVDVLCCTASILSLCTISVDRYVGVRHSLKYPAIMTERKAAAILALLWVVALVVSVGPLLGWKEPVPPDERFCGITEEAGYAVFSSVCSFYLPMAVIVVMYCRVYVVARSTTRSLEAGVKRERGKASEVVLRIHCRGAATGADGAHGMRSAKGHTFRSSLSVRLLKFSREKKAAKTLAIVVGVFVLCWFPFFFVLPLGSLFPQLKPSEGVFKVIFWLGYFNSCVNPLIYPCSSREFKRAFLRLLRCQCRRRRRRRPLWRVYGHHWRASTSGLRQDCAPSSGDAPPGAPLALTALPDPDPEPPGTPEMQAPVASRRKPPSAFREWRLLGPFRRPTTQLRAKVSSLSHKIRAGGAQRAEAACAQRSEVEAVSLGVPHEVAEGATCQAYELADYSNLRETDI
Description: Compounds were incubated with 0.6 nM [^3H]Prazosin for 60 min at 25° C. Non-specific binding was estimated in the presence of 10 μM phentolamine. Receptor proteins were filtered and washed, the filters were then counted to determine [^3H]Prazosin specifically bound. […] Biochemical assay results are presented as the percent inhibition of specific binding in Table B1.

[2] = target: T2, rat adrenergic α1B receptor (Rattus norvegicus, UniProt P15823); experiment: Radioligand binding, adrenergic α1B ([3H]Prazosin); design: species or system Wistar Rat; conditions: compound at 0.1 μM; for Percentage inhibition of ligand binding, Adrenergic α1B (0.1 μM): repeat datapoints each shown
T2 construct: rat adrenergic α1B receptor obtained from Wistar Rat liver; from tissue; host or cells: Wistar rat liver
T2 sequence (P15823 1-515): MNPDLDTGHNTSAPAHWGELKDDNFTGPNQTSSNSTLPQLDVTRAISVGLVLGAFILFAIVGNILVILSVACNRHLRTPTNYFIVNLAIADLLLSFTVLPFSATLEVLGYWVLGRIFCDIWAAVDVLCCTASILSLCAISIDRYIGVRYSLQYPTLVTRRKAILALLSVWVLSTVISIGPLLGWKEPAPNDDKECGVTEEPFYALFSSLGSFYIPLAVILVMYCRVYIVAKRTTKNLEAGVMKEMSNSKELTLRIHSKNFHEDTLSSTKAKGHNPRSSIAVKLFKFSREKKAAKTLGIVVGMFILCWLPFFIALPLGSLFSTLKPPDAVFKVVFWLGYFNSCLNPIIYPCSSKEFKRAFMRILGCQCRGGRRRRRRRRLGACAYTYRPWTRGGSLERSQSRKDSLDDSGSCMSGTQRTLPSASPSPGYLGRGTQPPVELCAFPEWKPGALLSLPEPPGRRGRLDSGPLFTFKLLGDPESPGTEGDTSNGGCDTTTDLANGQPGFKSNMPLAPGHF
How it was run: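 Incubation ran 60 min at 25 °C in Tris-HCl buffer (50 mM, pH 7.4, 0.5 mM EDTA) with Wistar rat liver α1B receptor. 10 μM phentolamine set non-specific binding.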

[3] = target: T3, human recombinant adrenergic α2B receptor (Homo sapiens, UniProt P18089); experiment: Radioligand binding, adrenergic α2B ([3H]Rauwolscine)
T3 construct: expressed in transfected cells; host or cells: CHO-K1
T3 sequence (P18089 1-450): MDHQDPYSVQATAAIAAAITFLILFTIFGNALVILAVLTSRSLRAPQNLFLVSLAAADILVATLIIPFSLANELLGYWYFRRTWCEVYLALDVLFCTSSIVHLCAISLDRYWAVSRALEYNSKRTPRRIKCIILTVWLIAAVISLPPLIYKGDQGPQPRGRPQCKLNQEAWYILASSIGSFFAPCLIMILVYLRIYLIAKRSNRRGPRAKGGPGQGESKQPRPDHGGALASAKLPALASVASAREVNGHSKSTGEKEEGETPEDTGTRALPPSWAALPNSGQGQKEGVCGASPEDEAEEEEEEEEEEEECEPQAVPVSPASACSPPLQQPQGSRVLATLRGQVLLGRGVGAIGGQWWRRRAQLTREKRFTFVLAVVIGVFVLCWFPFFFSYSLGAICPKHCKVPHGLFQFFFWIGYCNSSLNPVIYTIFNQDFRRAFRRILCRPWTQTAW
How it was run: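 Readout: percent inhibition of specific [3H]Rauwolscine binding, measured by filtration and counting. Conditions: CHO-K1 cell-expressed receptor, 2.5 nM radioligand, 60 min, 25° C, Tris-HCl pH 7.4 buffer with MgCl2, EDTA, BSA. Non-specific binding: 10 μM Prazosin.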

[4] = target: T4, human recombinant adrenergic α2A receptor (Homo sapiens, UniProt P08913); experiment: Radioligand binding, adrenergic α2A ([3H]MK-912); conditions: compound at 0.1 μM, [3H]MK-912
T4 construct: expressed in transfected cells; host or cells: insect Sf9 cells
T4 sequence (P08913 1-465): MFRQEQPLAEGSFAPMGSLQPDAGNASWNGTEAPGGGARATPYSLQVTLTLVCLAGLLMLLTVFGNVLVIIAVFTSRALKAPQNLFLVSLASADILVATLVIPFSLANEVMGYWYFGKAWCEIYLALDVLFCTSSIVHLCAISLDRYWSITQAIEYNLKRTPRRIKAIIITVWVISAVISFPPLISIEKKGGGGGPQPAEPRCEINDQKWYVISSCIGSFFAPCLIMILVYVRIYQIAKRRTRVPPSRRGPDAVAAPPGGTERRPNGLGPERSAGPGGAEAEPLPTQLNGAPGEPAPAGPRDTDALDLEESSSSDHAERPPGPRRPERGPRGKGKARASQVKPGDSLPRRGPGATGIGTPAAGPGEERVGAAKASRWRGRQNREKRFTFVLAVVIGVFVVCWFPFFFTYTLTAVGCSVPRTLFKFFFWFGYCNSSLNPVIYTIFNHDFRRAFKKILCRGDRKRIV
How it was run: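 Sf9-expressed receptor was incubated with compound for 60 min at 25 °C in modified Tris-HCl buffer, pH 7.4. Nonspecific binding was taken as that remaining with 10 μM WB-4101.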

Row | Percentage inhibition of ligand binding, Adrenergic α1D [1] [%] | Percentage inhibition of ligand binding, Adrenergic α1B ([2]; 0.1 µM) [%] | Percentage inhibition of ligand binding, Adrenergic α2A ([4]; 0.1 µM) [%] | Percentage inhibition of ligand binding, Adrenergic α1B [2] [%] | Percentage inhibition of ligand binding, Adrenergic α2B ([3]; compound at 0.03 μM, 0.03 µM) [%] | SMILES | other results
1 | – | – | – | – | – | CCCCC(O)(Cn1c2c(c3cc(Cl)ccc31)CN(C)CC2)c1ccc(F)cc1 (single isomer, unassigned) [33a] | Percentage inhibition of ligand binding, Adrenergic α1D (0.1 μM) ([1]; repeat datapoints each shown): 23%; Percentage inhibition of ligand binding, Adrenergic α1B (0.1 μM) ([2]; 0.1 µM): −2%; Percentage inhibition of ligand binding, Adrenergic α2B (0.1 μM) ([3]; compound at 0.1 μM, repeat datapoints each shown, 0.1 µM): −3%
2 | 36 | 30 | 68 | – | – | CC(Cn1c2c(c3ccccc31)CN(C)CC2)c1ccc(F)cc1 (single isomer, unassigned) [272b] | –
3 | 88 | – | – | – | – | Cc1ccc2c(c1)c1c(n2CC(C)c2ccc(F)cc2)CCN(C)C1 (single isomer, unassigned) [288a] | Percentage inhibition of ligand binding, Adrenergic α2B ([3]; compound at 0.1 μM): 104%
4 | 17 | – | – | 39 | – | Cc1ccc2c(c1)c1c(n2CC(C)c2ccc(F)cc2)CCN(C)C1 (single isomer, unassigned) [288b] | Percentage inhibition of ligand binding, Adrenergic α2A [4]: 67%
5 | 57 | 51 | 60 | – | – | Cc1ccc2c(c1)c1c(n2CC(C)c2ccc(C)nc2)CCN(C)C1 (single isomer, unassigned) [289a] | –
6 | – | – | −5 | 7 | 24 | OCCN1CCc2c(c3cc(Cl)ccc3n2CC(O)c2cccnc2)C1 (single isomer, unassigned) [II-94b] | –
7 | – | 12 | 24 | – | 49 | Cc1cnc2c(c1)c1c(n2CC(C)(O)c2cccnc2)CCN(C)C1 (single isomer, unassigned) [II-99a] | –
8 | – | 5 | 16 | – | 7 | Cc1cnc2c(c1)c1c(n2CC(C)(O)c2cccnc2)CCN(C)C1 (single isomer, unassigned) [II-99b] | –
9 | – | – | 4 | 24 | 1 | Cc1cnc2c(c1)c1c(n2CC(O)c2ccc(C)nc2)CCN(C)C1 (single isomer, unassigned) [II-100b] | –
10 | – | – | – | – | – | Cc1ccc2c(c1)c1c(n2CC(O)c2ccncc2)CN(C)CC1 (centres unmarked) [8a] | Percentage inhibition of ligand binding, Adrenergic α1B (0.1 μM) ([2]; 0.1 µM): 39%; Percentage inhibition of ligand binding, Adrenergic α2A (0.1 μM) ([4]; repeat datapoints each shown, 0.1 µM): 15%; Percentage inhibition of ligand binding, Adrenergic α2B (0.03 μM) ([3]; compound at 0.03 μM, repeat datapoints each shown, 0.03 µM): 22%
